Like-named read-outs stand apart in the source and are kept apart here.
Experiments:
[1] = Stability of the analytes in rat plasma (QC samples); assay type: in vitro ADME; details: n = 6; for Stability (% RE) Post-Preparative: extracted plasma samples, 12 h at 4 °C after preparation; for Stability (% RE) Short-Term / Stability (% RE) Long-Term / Stability (% RE) Three Freeze-Thaw: rat plasma; for Stability (% RE) Short-Term: 4 h at ambient temperature; for Stability (% RE) Long-Term: storage for 2 weeks at −20 °C; for Stability (% RE) Three Freeze-Thaw: three freeze (−20 °C) and thaw cycles
Procedure: To study the stability, QC samples of the three analytes at three QC levels (LQC, MQC, and HQC) were added into drug-free plasma samples and each levels contained six replicates. Four different manipulations were designed to assess the stability involving short-term stability (storage for 4 h at ambient temperature), long-term stability (storage for 2 weeks at −20 °C), freeze-thaw stability (three freeze at −20 °C and thaw cycles), and post-preparative stability (storage for 12 h after sample preparation at 4 °C). A series of concentrations of stability testing QC samples was obtained by the calibration curve which was established from freshly prepared standard samples.

[2] = Pharmacokinetic study in rats after oral administration of R. cordifolia extract (UHPLC-MS/MS of plasma); assay type: in vivo, Sprague-Dawley (SD) rats; details: male, Sprague-Dawley
Procedure: The UHPLC-MS/MS method described herein was applied to investigate the pharmacokinetics of the three constituents in R. cordifolia after a single oral administration of 0.82 g/kg of extract (equivalent to 6.3 μg/g for mollugin, 1.3 μg/g for munjistin, and 0.68 μg/g for purpurin) to twelve rats. We determined the oral dosage for the rats corresponding to the human dosage recommended in the Chinese Pharmacopoeia (2015 edition). The human dosage of R. cordifolia in the Chinese Pharmacopoeia is 10 g/day, so we calculated the final oral dosage as 0.82 g/kg in rats based on the Meeh-Rubn method.
Twelve male Sprague-Dawley (SD) rats (body weight 220 ± 20 g) were obtained from the experimental animal center of Harbin Medical University and adapted to a constant-temperature (25 °C) room. The animal handling procedures were approved by the institutional ethics committee and conformed to the principles of the International Guide for the Care and Use of Laboratory Animals. Before the experiment, the rats were fasted for 12 h and had access to water during the research period. Blood (0.4 mL) was collected from the orbital venous plexus at several specific time points (0, 0.33, 0.67, 1, 1.3, 1.67, 2, 2.5, 3, 4, 6, 8, 12 and 24 h) after the oral administration of R. cordifolia (0.82 g/kg). After centrifugation at 12000 rpm for 5 min, the plasma was collected immediately and stored at −20 °C until sample analysis.
Before the experiment, the plasma samples were thawed naturally at room temperature. As a liquid-liquid extraction method, 100 μL of methanol and 50 μL of I.S. (2000 ng/mL) were added to a rat plasma sample (100 μL), and then the content was mixed by a vortex mixer for 30 s. After this step, a 3 mL aliquot of ethyl acetate (extraction agent) was accurately added and the mixture vortexed for 60 s. Then the samples were put into a centrifuge. The organic supernatant was pipetted into clean glass tubes individually after centrifugation 4000 rpm for 5 min. The upper organic layer was removed and evaporated to dryness at 40 °C under a stream of nitrogen. The residue was then reconstituted with 100 μL of mobile phase (5 mM ammonium acetate in water/methanol, 10:90, v/v), vortexed for 30 s and filtered by a 0.22 μm membrane. A 5 μL aliquot of the solution was injected into the UHPLC-MS/MS system for analysis.
Noncompartmental methods were applied to calculate the following pharmacokinetic parameters. The peak plasma concentration (Cmax) and the time of maximum plasma concentration (Tmax) were observed directly from the measured data. The elimination rate constant (Ke) was calculated using the linear regression of the terminal points in a semi-log plot of the plasma concentration against time. The elimination half-life (t1/2) was calculated using the formula: t1/2 = 0.693/Ke
The area under the peak plasma concentration-time curve (AUC0→t) to the last measurable plasma concentration (Ct) was estimated using the linear trapezoidal rule. The area under the plasma concentration-time curve to time infinity (AUC0→∞) was calculated as following: AUC0→∞ = AUC0-t + Ct/Ke

[3] = medium QC (26.4/51.5/245 ng/mL)
[4] = high QC (211/412/1960 ng/mL purpurin/munjistin/mollugin)
[5] = low QC (0.528/1.03/4.90 ng/mL purpurin/munjistin/mollugin)
[6] = medium QC (26.4/51.5/245 ng/mL purpurin/munjistin/mollugin)

| SMILES | Stability (% RE) Post-Preparative ([1]; high QC (211/412/1960 ng/mL)) | Stability (% RE) Post-Preparative ([1]; low QC (0.528/1.03/4.90 ng/mL)) | Stability (% RE) Post-Preparative [1, 3] | Stability (% RE) Short-Term ([1]; high QC (211/412/1960 ng/mL)) | Stability (% RE) Short-Term ([1]; low QC (0.528/1.03/4.90 ng/mL)) | Stability (% RE) Short-Term [1, 3] | Stability (% RE) Long-Term ([1]; high QC (211/412/1960 ng/mL)) | Stability (% RE) Long-Term ([1]; low QC (0.528/1.03/4.90 ng/mL)) | Stability (% RE) Long-Term [1, 3] | Stability (% RE) Three Freeze-Thaw [1, 4] | Stability (% RE) Three Freeze-Thaw [1, 5] | Stability (% RE) Three Freeze-Thaw [1, 6] | AUC(0-inf) ([2]; rat, in vivo, po, 0.82 g/kg) | AUC(0-t) ([2]; rat, in vivo, po, 0.82 g/kg) | Cmax ([2]; rat, in vivo, po, 0.82 g/kg) | Tmax ([2]; rat, in vivo, po, 0.82 g/kg) | half-life ([2]; rat, in vivo, po, 0.82 g/kg) | further results |
| --- | --- | --- | --- | --- | --- | --- | --- | --- | --- | --- | --- | --- | --- | --- | --- | --- | --- | --- |
| O=C1c2ccccc2C(=O)c2c1cc(O)c(C(=O)O)c2O [Munjistin, munjistin] | −10.15 % RE | 11.15 % RE | 7.04 % RE | 7.31 % RE | 11.56 % RE | 6.73 % RE | −0.77 % RE | 13.97 % RE | 5.56 % RE | −2.82 % RE | 9.04 % RE | 9.46 % RE | 0.136 ± 0.0212 µg·h/mL | 0.11 ± 0.0201 µg·h/mL | 0.0261 ± 0.00659 µg/mL | 2.58 ± 0.19 h | 9.22 ± 2.75 h | – |
| COC(=O)c1c2c(c3ccccc3c1O)OC(C)(C)C=C2 [Mollugin, mollugin] | 14.38 % RE | 11.15 % RE | 0.65 % RE | −8.69 % RE | 9.90 % RE | −4.35 % RE | −8.55 % RE | 4.57 % RE | −0.17 % RE | −13.17 % RE | 10.26 % RE | 8.78 % RE | – | – | – | – | – | half-life ([2]; rat plasma, single oral 0.82 g/kg R. cordifolia extract, mean ± SD, n = 12, non-compartment model, read-out: t1/2 (converted)): 9.02 ± 2.14 h; AUC(0-t) ([2]; rat plasma, single oral 0.82 g/kg R. cordifolia extract, mean ± SD, n = 12, read-out: AUC0→t): 0.232 ± 0.0576 µg·h/mL; AUC(0-inf) ([2]; rat plasma, single oral 0.82 g/kg R. cordifolia extract, mean ± SD, n = 12, read-out: AUC0→∞): 0.296 ± 0.0409 µg·h/mL; Cmax ([2]; rat plasma, single oral 0.82 g/kg R. cordifolia extract, mean ± SD, n = 12, read-out: Cmax): 0.0521 ± 0.00671 µg/mL; Tmax ([2]; rat plasma, single oral 0.82 g/kg R. cordifolia extract, mean ± SD, n = 12, read-out: Tmax): 1.99 ± 0.21 h |
| O=C1c2ccccc2C(=O)c2c(O)c(O)cc(O)c21 [Purpurin, purpurin] | 13.68 % RE | −14.02 % RE | −2.00 % RE | 14.76 % RE | −13.38 % RE | −5.35 % RE | 12.08 % RE | −2.59 % RE | −2.68 % RE | 14.76 % RE | 1.92 % RE | −5.35 % RE | 0.243 ± 0.0359 µg·h/mL | 0.206 ± 0.0361 µg·h/mL | 0.0701 ± 0.0118 µg/mL | 1.61 ± 0.24 h | 9.52 ± 2.68 h | – |
